Patent US10703746B2, “Mutant IDH1 inhibitors useful for treating cancer” (THE UNITED STATES OF AMERICA, AS REPRESENTED BY THE …, priority 2014, dated 2020)

Tests used:
[1] = target: IDH1 R132C (Homo sapiens, UniProt O75874, R132C); assay: IDH1 R132C enzymatic assay (NADPH depletion coupled to diaphorase/resazurin); format: biochemical
Description: (§1) Assays were conducted in a 1536-well black solid-bottom plate with a final assay volume of 9 μL.
For IDH1 R132C, 3 μL of enzyme (0.00032 mg/mL IDH1 […], 10% glycerol, 50 mM potassium phosphate pH 6.5, 5 mM MgCl2, 0.03% BSA) were added to the plate, followed by the addition of 23 nL of test compound in DMSO. The plate was lidded and incubated at room temperature for 30 minutes at which time 3 μL of substrate were added (0.012 mM NADPH, 0.6 mM α-KG, 10% glycerol, 50 mM potassium phosphate pH 6.5, 5 mM MgCl2, 0.03% BSA). […]

[2] = target: IDH1 R132H (Homo sapiens, UniProt O75874, R132H); assay: IDH1 R132H enzymatic assay (NADPH depletion coupled to diaphorase/resazurin); format: biochemical
Description: as §1
Specifically, for IDH1 R132H, 3 μL of enzyme (4 mM β-ME, 0.0005 mg/mL IDH1 R132H, 150 mM NaCl, 20 mM Tris pH 7.5, 10 mM MgCl2, 0.05% BSA) were added to the plate, followed by the addition of 23 nL of test compound in DMSO. The plate was lidded and incubated at room temperature for 30 minutes at which time 3 μL of substrate were added (0.016 mM NADPH, 2 mM α-KG, 150 mM NaCl, 20 mM Tris pH 7.5, 10 mM MgCl2, 0.05% BSA). This reaction was incubated at room-temperature for 60 minutes at which time the detection mix was added (0.06 mg/mL diaphorase, 0.036 mM resazurin, 150 mM NaCl, 20 mM Tris pH 7.5, 10 mM MgCl2, 0.05% BSA). […]

[3] = IDH1 R132C enzymatic inhibition, IC50 class
[4] = IDH1 R132H enzymatic inhibition, IC50 class
[5] = enzymatic inhibition, IDH1 R132C
[6] = enzymatic inhibition, IDH1 R132H

Chain of IDH1 R132C (O75874 whole entry R132C): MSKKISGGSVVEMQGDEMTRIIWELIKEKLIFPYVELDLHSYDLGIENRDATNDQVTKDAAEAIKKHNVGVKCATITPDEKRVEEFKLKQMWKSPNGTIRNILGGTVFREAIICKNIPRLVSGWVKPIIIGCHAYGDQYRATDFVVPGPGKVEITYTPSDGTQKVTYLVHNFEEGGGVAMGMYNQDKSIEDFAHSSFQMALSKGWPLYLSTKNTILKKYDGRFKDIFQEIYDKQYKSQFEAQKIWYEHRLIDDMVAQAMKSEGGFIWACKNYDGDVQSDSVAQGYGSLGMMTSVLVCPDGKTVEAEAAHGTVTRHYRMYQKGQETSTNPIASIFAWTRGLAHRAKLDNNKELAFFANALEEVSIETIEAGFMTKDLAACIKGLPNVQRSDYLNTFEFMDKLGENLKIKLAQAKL
Chain of IDH1 R132H (O75874 whole entry R132H): as the sequence (O75874 whole entry R132C) above, with C132H counted along it

Row | IC50 [1, 3] [nM] | IC50 [2, 4] [nM] | IC50 [1, 5] [nM] | IC50 [2, 6] [nM] | Compound
1 | 300 to 1000 | 300 to 1000 | – | – | CCc1cccc(CC)c1-n1c(CC(C)C)c(C(=O)NC(C)(C)CO)cc(-c2nc(-c3ccc(Cl)cc3)cs2)c1=O [Compound 54]
2 | 300 to 1000 | < 300 | – | – | CCOc1ccc(Cl)cc1-n1c(C=C(C)C)c(C(=O)N2CCNCC2)cc(-c2nc(-c3ccc(C(F)(F)F)nc3)cs2)c1=O [Compound 626]
3 | 5000 to 20000 | 5000 to 20000 | – | – | COc1cccc(CN2CCN(C)CC2)c1-n1c2c(cc(-c3nc(-c4ccc(Cl)cc4)cs3)c1=O)C(=O)CC(C)(C)C2 [Compound 319]
4 | < 300 | 300 to 1000 | – | – | CCc1cccc(CC)c1-n1c(CC(C)C)c(C(=O)N2CCNC(c3ccccc3)C2)cc(-c2nc(-c3ccc(Cl)cc3)cs2)c1=O (centres unmarked) [Compound 202]
5 | 300 to 1000 | 300 to 1000 | – | – | CCc1cccc(CC)c1-n1c(CC(C)C)c(C(=O)N2CCNCC2)cc(-c2nc(-c3ccc(OC)cc3)c(C)s2)c1=O [Compound 224]
6 | – | – | < 300 | < 300 | CCc1cccc(CC)c1-n1c(CC2CCC2)c(C(=O)N2CCNCC2)cc(-c2nc(-c3ccc(Cl)cc3)cs2)c1=O [Compound 433]
7 | 5000 to 20000 | > 20000 | – | – | CC(c1ccccc1)n1c2c(cc(-c3nc(-c4ccc(Cl)cc4)cs3)c1=O)C(=O)CC(C)(C)C2 (centres unmarked) [Compound 11]
8 | – | – | 1000 to 5000 | 1000 to 5000 | CCOC(=O)c1ncsc1-n1c2c(cc(-c3nc(-c4ccc(Cl)cc4)cs3)c1=O)C(=O)CC(C)(C)C2 [Compound 561]
9 | < 300 | 1000 to 5000 | – | – | CCc1cccc(CC)c1-n1c(C)c(C(=O)NCCNC)cc(-c2nc(-c3ccc(Cl)cc3)cs2)c1=O [Compound 15]
10 | – | – | < 300 | < 300 | CCc1cccc(CC)c1-n1c(C=C(C)C)c(C(=O)N2CCNC(CO)C2)cc(-c2nc(-c3ccc(Cl)cc3)cs2)c1=O (centres unmarked) [Compound 478]
11 | 1000 to 5000 | 1000 to 5000 | – | – | CCc1cccc(CC)c1-n1c2c(cc(-c3nc(-c4ccncc4)cs3)c1=O)C(=O)CC(C)(C)C2 [Compound 132]
12 | 300 to 1000 | < 300 | – | – | CCc1cccc(CC)c1-n1c(COCCOC)c(C(=O)N2CCNCC2)cc(-c2nc(-c3ccc(Cl)cc3)cs2)c1=O [Compound 393]
13 | < 300 | < 300 | – | – | CCc1cccc(CC)c1-n1c(C=C(C)C)c(C(=O)N2CCN[C@@H](C(=O)O)C2)cc(-c2nc(-c3ccc(C(F)(F)F)cc3)cs2)c1=O [Compound 641]
14 | > 20000 | > 20000 | – | – | O=c1[nH]cccc1-c1nc(-c2ccc(Cl)cc2)cs1 [Compound 79, 3-(4-(4-chlorophenyl)thiazol-2-yl)pyridin-2(1H)-one]
15 | – | – | < 300 | < 300 | CCc1cccc(CC)c1-n1c(C=C(C)C)c(C(=O)N2CCNCC2)cc(-c2nc(-c3ccc(Cl)cc3)cs2)c1=O [Compound 408]
16 | – | – | < 300 | < 300 | CCOc1ccc(C)cc1-n1c(C=C(C)C)c(C(=O)N2CCNCC2)cc(-c2nc(-c3ccc(C(F)(F)F)nc3)cs2)c1=O [Compound 420]
17 | – | – | < 300 | < 300 | CCOc1ccccc1-n1c(C=C(C)C)c(C(=O)N2CCNCC2)cc(-c2nc(-c3ccc(Cl)cc3)cs2)c1=O [Compound 572]
18 | – | – | < 300 | 300 to 1000 | C=Cc1sc(-c2cc(C(=O)N3CCNCC3)c(CC(C)C)n(-c3c(CC)cccc3CC)c2=O)nc1-c1ccc(Cl)cc1 [Compound 413]
19 | 1000 to 5000 | 1000 to 5000 | – | – | CCc1cccc(CC)c1-n1c(C)c(C(=O)N2CCOCC2)cc(-c2nc(-c3ccc(Cl)cc3)cs2)c1=O [Compound 110]
20 | – | – | 300 to 1000 | 1000 to 5000 | CCc1cccc(CC)c1-n1c(CC2CCCCO2)c(C(=O)N2CCNCC2)cc(-c2nc(-c3ccc(Cl)cc3)cs2)c1=O (centres unmarked) [Compound 455]
21 | < 300 | < 300 | – | – | CCc1cccc(CC)c1-n1c(CC(C)C)c(C(=O)N2CCNC(=O)C2)cc(-c2nc(-c3ccc(Cl)cc3)cs2)c1=O [Compound 91]
22 | < 300 | 300 to 1000 | – | – | CCc1cccc(CC)c1-n1c(CC(C)C)c(C(=O)N2CCN[C@H](C(=O)O)C2)cc(-c2nc(-c3ccc(Cl)cc3)cs2)c1=O [Compound 189]
23 | 1000 to 5000 | 5000 to 20000 | – | – | CCc1cccc(CC)c1-n1c(C)c(C(=O)NC2CCCC(N)C2)cc(-c2nc(-c3ccc(Cl)cc3)cs2)c1=O (mixture of isomers) [Compound 126]
24 | – | – | < 300 | < 300 | CC(C)=Cc1c(C(=O)N2CCNCC2)cc(-c2nc(-c3ccc(Cl)cc3)cs2)c(=O)n1-c1cc(Cl)ccc1OC(C)C [Compound 553]
25 | 5000 to 20000 | > 20000 | – | – | O=C1CCCc2c1cc(-c1nc(-c3ccc(Cl)cc3)cs1)c(=O)n2-c1ccccc1CO [Compound 634]

Row | IC50 [1, 3] [nM] | IC50 [2, 4] [nM] | IC50 [1, 5] [nM] | IC50 [2, 6] [nM] | Compound
26 | 5000 to 20000 | 5000 to 20000 | – | – | CC1(C)CC(=O)c2cc(-c3nc(-c4ccc(Cl)cc4)cs3)c(=O)n(-c3ccccc3C(=O)O)c2C1 [Compound 227]
27 | 1000 to 5000 | > 20000 | – | – | CCc1cccc(CC)c1-n1c(C)c(C(=O)NCc2ccccc2)cc(-c2nc(-c3ccc(Cl)cc3)cs2)c1=O [Compound 192]
28 | 1000 to 5000 | 1000 to 5000 | – | – | CCc1cccc(CC)c1-n1c2c(cc(-c3nc(-c4cccc(O)c4)cs3)c1=O)C(=O)CC(C)(C)C2 [Compound 249]
29 | – | – | > 20000 | > 20000 | CCc1cccc(CC)c1-n1c(CC2CCNCC2)c(C(=O)N2CCNCC2)cc(-c2nc(-c3ccc(Cl)cc3)cs2)c1=O [Compound 615]
30 | 1000 to 5000 | > 20000 | – | – | COc1ccc(OC)c(-n2c3c(cc(-c4nnn(-c5ccc(Cl)cc5)n4)c2=O)C(=O)CC(C)(C)C3)c1 [Compound 287]
31 | – | – | 1000 to 5000 | 300 to 1000 | CCc1cccc(C)c1-n1c(C)c(C(=O)N2CCNCC2)cc(-c2nc(-c3ccc(Cl)cc3)cs2)c1=O [Compound 432]
32 | 300 to 1000 | 1000 to 5000 | – | – | CCc1cccc(CC)c1-n1c(CC(C)C)c(C(=O)N2CCNCC2C(=O)O)cc(-c2nc(-c3ccc(Cl)cc3)cs2)c1=O (centres unmarked) [Compound 75]
33 | 1000 to 5000 | 1000 to 5000 | – | – | COc1cccc(C)c1-n1c2c(cc(-c3nc(-c4ccc(Cl)cc4)cs3)c1=O)C(=O)CCC2 [Compound 375]
34 | 1000 to 5000 | 1000 to 5000 | – | – | COc1ccc(OC)c(-n2c3c(cc(-c4nc(-c5ccc(Cl)cc5)cs4)c2=O)CCC(C)(C)C3)c1 [Compound 73]
35 | 1000 to 5000 | 1000 to 5000 | – | – | O=C1CCCc2c1cc(-c1nc(-c3ccc(Cl)cc3)cs1)c(=O)n2-c1ccccc1OCC(F)(F)F [Compound 343]
36 | 300 to 1000 | 300 to 1000 | – | – | CCc1cccc(CC)c1-n1c(CC(C)C)c(C(=O)N2CCNCC2)cc(-c2nc(-c3ccc(Cl)cc3F)c(C)s2)c1=O [Compound 632]
37 | – | – | 5000 to 20000 | 5000 to 20000 | CN1CCN(c2ccc(-n3c4c(cc(-c5nc(-c6ccc(Cl)cc6)cs5)c3=O)C(=O)CC(C)(C)C4)c(C(F)(F)F)c2)CC1 [Compound 493]
38 | 1000 to 5000 | 1000 to 5000 | – | – | CC1(C)CC(=O)c2cc(-c3nc(-c4ccc(Cl)cc4)cs3)c(=O)n(-c3cc(C(F)(F)F)ccc3N3CCOCC3)c2C1 [Compound 92]
39 | 1000 to 5000 | 1000 to 5000 | – | – | Cc1cccc(O)c1-n1c2c(cc(-c3nc(-c4ccc(Cl)cc4)cs3)c1=O)C(=O)CC(C)(C)C2 [Compound 246]
40 | < 300 | < 300 | – | – | COc1ncc(C)cc1-n1c(C=C(C)C)c(C(=O)N2CCNCC2)cc(-c2nc(-c3ccc(Cl)cc3)cs2)c1=O [Compound 667]
41 | – | – | 300 to 1000 | 300 to 1000 | Cc1ccc(Cl)c(-n2c3c(cc(-c4nc(-c5ccc(Cl)cc5)cs4)c2=O)C(=O)CC(C)(C)C3)c1 [Compound 613]
42 | < 300 | 300 to 1000 | – | – | CCc1cccc(CC)c1-n1c(CC(C)C)c(C(=O)N2CCNCC2)cc(-c2nc(-c3ccc(Cl)c(C)c3)c(C)s2)c1=O [Compound 624]
43 | 1000 to 5000 | 1000 to 5000 | – | – | CCc1cccc(CC)c1-n1c2c(cc(-c3nc(-c4ccc(C)nc4)c(C)s3)c1=O)C(=O)CC(C)(C)C2 [Compound 299]
44 | – | – | 5000 to 20000 | 5000 to 20000 | O=C1CCCc2c1cc(-c1nc(-c3ccc(Cl)cc3)cs1)c(=O)n2-c1ccccc1CCO [Compound 590]
45 | 300 to 1000 | 1000 to 5000 | – | – | CCc1cccc(CC)c1-n1c(C)c(C(=O)NC[C@@H](C)O)cc(-c2nc(-c3ccc(Cl)cc3)cs2)c1=O [Compound 151]
46 | – | – | < 300 | < 300 | CCc1cccc(CC)c1-n1c(CC2CCCO2)c(C(=O)N2CCNCC2)cc(-c2nc(-c3ccc(Cl)cc3)cs2)c1=O (centres unmarked) [Compound 506]
47 | 300 to 1000 | < 300 | – | – | COc1ccc(Cl)c(-n2c(CC(C)C)c(C(=O)N3CCNCC3)cc(-c3nc(-c4ccc(Cl)cc4)cs3)c2=O)c1 [Compound 364]
48 | – | – | < 300 | < 300 | CCc1cccc(CC)c1-n1c(C=C(C)C)c(C(=O)N2CCNC(=O)CC2)cc(-c2nc(-c3ccc(Cl)cc3)cs2)c1=O [Compound 537]
49 | < 300 | < 300 | – | – | CCc1cccc(CC)c1-n1c(C=C(C)C)c(C(=O)N2CCNC(=O)C2)cc(-c2nc(-c3ccc(Cl)cc3)cs2)c1=O [Compound 358]
